Results from US6670395B1, “Prophylactic and therapeutic treatment of skin sensitization and irritation” (Bristol-Myers Squibb Company, priority 1996, dated 2003).

Columns and labels:
Balb/c mice [1] = assay: Counter sensitizer to DNCB: ear swelling after DNCB challenge of sensitized mice; format: in vivo
Description: (§1) A 1.0% (w/v) solution of phenoxyacetic acid methyl ester (PAME, a compound of Formula I wherein R is methyl) was prepared in a gel formulation (2.5% HPMC in 75% ethanol). The same gel formulation served as a negative control. For sensitization, a 1% (w/v) solution of dinitrochlorobenzene (DNCB) was prepared in acetone.
(§2) Twenty-four (24) Balb/c mice had their back skin shaved. The mice were divided into three equal groups. The first group acted as a negative control and received on day 0 an application of acetone. The second and third groups each received 20 μL of 1% DNCB in acetone on the exposed back skin.
[…] Then, 10 minutes after challenge, the first and second groups received 100 μL of 1% HPMC in 75% ethanol. The third group received 1% of PAME in the HPMC gel.
(§3) Adverse reaction to the challenge with DNCB was determined by measuring the thickness of the mice ears before and after challenge to determine the amount of swelling, and then comparing the degree of swelling for mice treated in accordance with the invention (Group III) with Groups I and Groups II.

Balb/c mice [2] = assay: Counter sensitizer to oxazolone: ear swelling after challenge of sensitized mice; format: in vivo
Description: as §1, §2
All three groups were challenged on the right ear with 20μL of 1% DNCB in acetone five (5) days after sensitization. Then, 10 minutes after challenge, the first and second groups received 100 μL of 1% HPMC in 75% ethanol. The third group received 1% of PAME in the HPMC gel.
as §3
The procedures of Example 1 were repeated except that the mice were sensitized with a 1% (w/v) solution of oxazolone.

Balb/c female mice [3] = assay: Irritation induced by captopril: mouse ear thickness; format: in vivo
Description: (§4) Thirty (30) Balb/c female mice were obtained from Sprague Dawley Labs. A 1.0% (w/v) solution of PAME was prepared in a gel formulation (2.5% HPMC in 75% ethanol). A second solution containing a 2:1 volume ratio of acetone to ethanol was also prepared. A 20% (w/v) solution of captopril and the second solution (sufficient to elicit a strong irritant response), was also prepared. In addition a 1.0% HPMC solution was prepared as a placebo.
(§5) The Group I mice (10 mice) received the second solution and then 10 minutes later the HPMC solution. The positive control mice (10) designated as Group II received the captopril solution to the right ear followed by the HPMC solution. The experimental group of mice (10) (Group III) received the captopril solution to the right ear followed ten minutes later by the PAME solution.
(§6) The thickness of the ears was measured after 2 hours when maximum redness and swelling from the captopril solution were observed.

Balb/c female mice [4] = assay: Irritation induced by phorbol myristate: mouse ear thickness; details: in vivo
Description: as §4, §5, §6
The procedures of Example 4 were repeated except that captopril was replaced with phorbol myristate (12-tetradecanyol-13-phorbol myristic acid) in an amount of 0.1% (w/v) in a 1% HPMC gel. Phenoxyacetic acid was also tested in this protocol.

Balb/c female mice [5] = assay: Irritation induced by retinoic acid: mouse ear thickness; format: in vivo
Description: as §4, §5, §6
The procedures of […] were repeated except that captopril was replaced by retinoic acid in an amount of 1% (w/v) in a 1% HPMC gel.

Balb/c female mice [6] = assay: Irritation induced by dinitrochlorobenzene: mouse ear thickness; format: in vivo
Description: as §4, §5, §6
The procedures of Example 4 were repeated except that captopril was replaced with dinitrochlorobenzene (DNCB) in an amount of 2.0% (w/v) in a 1% HPMC gel.

[7] = PAME (2 mg) in HPMC gel + oxazolone (100 μg), 24 hours

COC(=O)COc1ccccc1 [PAME, phenoxyacetic acid methyl ester]
EAR SWELLING (Balb/c mice [1]; PAME (1 mg) in HPMC gel + DNCB (100 μg), 24 hours): 12 MM × 10^−3 | EAR THICKNESS (Balb/c mice [1]; PAME (1 mg) in HPMC gel + DNCB (100 μg), 24 hours, right ear): 240 ± 6 MM × 10^−3 | % SUPPRESSION (Balb/c mice [1]; PAME (1 mg) in HPMC gel + DNCB (100 μg), 24 hours, vs DNCB only): 62% | adverse reaction of the skin induced by sensitization with DNCB (in words) (Balb/c mice [1]; administered alone, prophylactically): prevented an adverse reaction of the skin | EAR SWELLING (Balb/c mice [2]; [7]): 16 MM × 10^−3 | EAR THICKNESS (Balb/c mice [2]; [7]): 278 ± 15 MM × 10^−3 | % SUPPRESSION (Balb/c mice [2]; PAME (2 mg) in HPMC gel + oxazolone (100 μg), 24 hours, vs oxazolone only): 84% | adverse reactions induced by sensitization with oxazolone (in words) (Balb/c mice [2]; mouse, in vivo): suppressed adverse reactions | EAR THICKNESS (Balb/c female mice [3]; 1.0% PAME gel 10 minutes after 20% captopril solution, 2 hours): 226 ± 5 MM × 10^−3 | % SUPPRESSION (Balb/c female mice [3]; PAME + captopril, 2 hours, vs captopril only): ≈93% | inflammation induced by contact with captopril (in words) (Balb/c female mice [3]; mouse, in vivo): suppressed inflammation | inflammation induced by contact with phorbol myristate (in words) (Balb/c female mice [4]): suppressed inflammation | EAR THICKNESS (Balb/c female mice [5]; PAME + retinoic acid 1% (w/v), 2 hours): 237 ± 11 MM × 10^−3 | % SUPPRESSION (Balb/c female mice [5]; PAME + retinoic acid, 2 hours, vs retinoic acid only): 100% | inflammation induced by retinoic acid (in words) (Balb/c female mice [5]; mouse, in vivo): suppressed inflammation | EAR THICKNESS (Balb/c female mice [6]; PAME + DNCB 2.0% (w/v), 2 hours): 249 ± 8 MM × 10^−3 | % SUPPRESSION (Balb/c female mice [6]; PAME + DNCB, 2 hours, vs DNCB only): 100% | inflammation induced by contact with DNCB (in words) (Balb/c female mice [6]; mouse, in vivo): suppressed inflammation

O=C(O)COc1ccccc1 [PHENOXYACETIC ACID, Phenoxyacetic acid]
inflammation induced by contact with phorbol myristate (in words) (Balb/c female mice [4]): suppressed inflammation
